For test [1], the target named is T1, Multidrug efflux pump subunit AcrB (Escherichia coli (strain K12)) (UniProt P31224).
T1 sequence (whole entry): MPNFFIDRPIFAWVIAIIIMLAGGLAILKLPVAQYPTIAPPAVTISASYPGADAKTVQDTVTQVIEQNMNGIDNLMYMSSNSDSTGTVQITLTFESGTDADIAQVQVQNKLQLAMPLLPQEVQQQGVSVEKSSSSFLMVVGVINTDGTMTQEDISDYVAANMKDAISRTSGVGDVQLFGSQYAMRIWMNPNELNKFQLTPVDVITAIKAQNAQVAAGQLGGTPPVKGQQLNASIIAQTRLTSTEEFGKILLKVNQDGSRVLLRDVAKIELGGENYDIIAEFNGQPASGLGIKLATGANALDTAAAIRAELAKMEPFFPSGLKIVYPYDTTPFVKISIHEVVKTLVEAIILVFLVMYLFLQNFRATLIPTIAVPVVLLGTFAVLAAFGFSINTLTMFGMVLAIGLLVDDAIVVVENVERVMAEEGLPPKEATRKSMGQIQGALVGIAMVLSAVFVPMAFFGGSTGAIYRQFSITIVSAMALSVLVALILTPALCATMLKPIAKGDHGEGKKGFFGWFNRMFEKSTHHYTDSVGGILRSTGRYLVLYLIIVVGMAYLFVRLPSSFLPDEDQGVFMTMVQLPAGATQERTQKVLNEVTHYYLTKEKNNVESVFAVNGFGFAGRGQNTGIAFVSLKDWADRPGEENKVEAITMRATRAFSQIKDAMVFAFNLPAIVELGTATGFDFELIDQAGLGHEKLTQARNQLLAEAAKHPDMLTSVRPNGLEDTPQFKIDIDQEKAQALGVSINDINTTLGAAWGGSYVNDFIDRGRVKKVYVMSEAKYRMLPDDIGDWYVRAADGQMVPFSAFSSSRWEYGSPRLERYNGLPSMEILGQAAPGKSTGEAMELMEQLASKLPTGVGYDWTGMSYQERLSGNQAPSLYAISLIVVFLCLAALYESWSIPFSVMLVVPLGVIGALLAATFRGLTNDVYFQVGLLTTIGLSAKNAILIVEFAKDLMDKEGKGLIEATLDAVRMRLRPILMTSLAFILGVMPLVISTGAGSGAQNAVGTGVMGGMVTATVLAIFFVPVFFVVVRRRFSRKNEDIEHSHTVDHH
Put plainly: Inhibition of AcrB in multidrug-resistant Escherichia coli BW25113 assessed as potentiation of chloramphenicol-induced antibacterial activity by measuring fold change in chloramphenicol MIC at 64 ug/ml by checkerboard titration method relative to chloramphenicol MIC. The following applies: dose 64.0 µg/ml.

In test [2] the target is T1, Multidrug efflux pump subunit AcrB (Escherichia coli (strain K12)). Put plainly: Inhibition of AcrB in multidrug-resistant Escherichia coli BW25113 assessed as potentiation of chloramphenicol-induced antibacterial activity by measuring fold change in chloramphenicol MIC at 128 ug/ml by checkerboard titration method relative to chloramphenicol MIC. The following applies: dose 128.0 µg/ml.

Some results are limits rather than exact numbers.

Regarding `CC1(C)CC(=O)c2ccc(OCC(=O)Nc3ccc(C#N)c(C(F)(F)F)c3)cc2O1`, in test [1], the fold change (FC) was 2. On to `Cc1ccc(COc2cccc3c4c(c(-c5nnco5)cc23)CCC(C)(C)O4)cc1`, for which, in test [2], the fold change (FC) was less than 16.

Source of the values: ChEMBL document CHEMBL4732114, “Design and structural optimization of novel 2H-benzo[h]chromene derivatives that target AcrB and reverse bacterial multidrug resistance” (Eur J Med Chem, 2021).
